Assay results from PMC12655351, “Synthesis and Anticancer Activity Evaluation of New 5-((5-Nitrofuran-2-yl)allylidene)-2-thioxo-4-thiazolidinones” (Pharmaceuticals, 2025).
Several values for one entry are separate records, joined by “and”; a condition that tells them apart may be missing. Identical values can stand only once. Like-named read-outs stand apart in the source and are kept apart here.

How the values were obtained:
[1] = test system: NCI-H266; test: NCI-60 SRB screen; conditions: for GI50 / TGI: NCI-H266, 48 h; for CC50: read-out: LC50, NCI-H266, 48 h
[2] = test system: SK-OV-3; test: cells; conditions: Homo sapiens, SK-OV-3, 48 h; for CC50: read-out: LC50, SK-OV-3, 48 h
[3] = test system: Ovarian cancer; test: cells; conditions: Homo sapiens; for GI50: read-out: MG_MID GI50; for CC50: read-out: MG_MID LC50
[4] = test system: CNS cancer; conditions: CNS cancer subpanel
[5] = test system: IGROV1; test: NCI-60 SRB screen
[6] = test system: HCT-116; conditions: HCT-116, 48 h
[7] = test system: Leukemia; conditions: Leukemia subpanel
[8] = test system: Melanoma; test: cells; conditions: Homo sapiens; for GI50: read-out: MG_MID GI50; for CC50: read-out: MG_MID LC50
[9] = test system: PC-3; test: cells; conditions: Homo sapiens, PC-3, 48 h
[10] = test system: OVCAR-4; test: cells; conditions: Homo sapiens, OVCAR-4, 48 h; for CC50: read-out: LC50, OVCAR-4, 48 h
[11] = test system: DU-145; test: cells; conditions: Homo sapiens, DU-145, 48 h; for CC50: read-out: LC50, DU-145, 48 h
[12] = test system: OVCAR-8; conditions: for GI50 / TGI: OVCAR-8, 48 h
[13] = test system: CAKI-1; test: cells; conditions: Homo sapiens, CAKI-1, 48 h
[14] = test system: UACC-62; test: NCI-60 SRB screen; conditions: for growth GP: UACC-62, 10 μM, 48 h
[15] = test system: MCF7; test: NCI-60 SRB screen; conditions: MCF7, 48 h
[16] = test system: Renal Cancer; test: cells; conditions: Homo sapiens; for GI50: read-out: MG_MID GI50; for CC50: read-out: MG_MID LC50
[17] = test system: SK-OV-3; conditions: for GI50 / TGI: SK-OV-3, 48 h
[18] = test system: A498; conditions: for GI50 / TGI: A498, 48 h
[19] = test system: A549/ATCC; test: NCI-60 SRB screen
[20] = test system: NCI-H23; test: cells; conditions: Homo sapiens, NCI-H23, 48 h; for CC50: read-out: LC50, NCI-H23, 48 h
[21] = test system: SF-268
[22] = test system: K-562; test: cells; conditions: Homo sapiens, K562, 48 h; for GI50: K-562, 48 h; for CC50: read-out: LC50
[23] = test system: RPMI-8226; test: cells; conditions: Homo sapiens, RPMI-8226, 48 h; for CC50: read-out: LC50
[24] = test system: K-562; conditions: K-562, 48 h
[25] = test system: MDA-MB-468; test: NCI-60 SRB screen; conditions: MDA-MB-468, 48 h; for CC50: read-out: LC50, MDA-MB-468, 48 h
[26] = test system: HCC-2998; test: cells; conditions: Homo sapiens, HCC 2998, 48 h
[27] = test system: UO-31; test: cells; conditions: Homo sapiens, UO-31, 48 h; for CC50: read-out: LC50, UO-31, 48 h
[28] = test system: KM12; test: NCI-60 SRB screen; conditions: KM12, 48 h
[29] = test system: COLO 205
[30] = test system: SK-MEL-28
[31] = test system: BT-549; test: cells; conditions: Homo sapiens, BT-549, 48 h; for CC50: read-out: LC50, BT-549, 48 h
[32] = test system: NCI-H522; test: NCI-60 SRB screen; conditions: NCI-H522, 48 h
[33] = Homo sapiens, IGROV-1, 48 h, read-out: LC50, IGROV1, 48 h
[34] = Homo sapiens, UACC-62, 48 h, read-out: LC50, UACC-62, 48 h

Structure (SMILES): O=C(O)CCCN1C(=O)/C(=C/C=C/c2ccc([N+](=O)[O-])o2)SC1=S [13b, 4-((Z)-5-((E)-3-(5-Nitrofuran-2-yl)allylidene)-4-oxo-2-thioxothiazolidin-3-yl)butanoic acid]
- GI50 ([1]; Homo sapiens, 48 h): 2.79 µM
- CC50 ([1]; Homo sapiens, 48 h): 76.1 µM
- GI50 [1]: 1.65 µM
- TGI [1]: 11.9 µM and 9.78 µM
- GI50 [2]: 2.73 µM
- CC50 [2]: 28.1 µM
- GI50 [3]: 0.96 µM
- CC50 [3]: 13.2 µM
- MG_MID TGI [4]: 2.09 µM
- CC50 [5, 33]: 5.14 µM
- GI50 [6]: 0.17 µM
- TGI [6]: 1.15 µM and 0.64 µM
- MG_MID TGI [7]: 28.3 µM
- GI50 [8]: 0.59 µM
- CC50 [8]: 3.6 µM
- GI50 [9]: 0.62 µM
- GI50 [10]: 1.16 µM
- CC50 [10]: 5.75 µM
- GI50 [11]: 1.09 µM
- CC50 [11]: 4.92 µM
- GI50 [12]: 0.27 µM
- TGI [12]: 2.25 µM and 1.24 µM
- GI50 [13]: 0.67 µM
- GI50 ([14]; Homo sapiens, UACC-62, 48 h): 0.31 µM
- growth GP [14]: -95.10%
- GI50 ([14]; UACC-62, 48 h): 0.18 µM
- GI50 ([15]; Homo sapiens): 0.35 µM
- GI50 [15]: 0.2 µM
- TGI [15]: 1.97 µM and 1.58 µM
- GI50 [16]: 0.99 µM
- CC50 [16]: 7.48 µM
- GI50 [17]: 2.18 µM
- TGI [17]: 7.44 µM and 13.1 µM
- CC50 ([17]; human, 48 h): 39.4 µM
- GI50 [18]: 3.32 µM
- TGI [18]: 11.5 µM and 8.16 µM
- GI50 ([19]; 48 h): 0.78 µM
- GI50 ([19]; Homo sapiens, A549, 48 h): 1.36 µM
- CC50 [20]: 6.24 µM
- TGI ([21]; SF-268, 48 h): 2.84 µM and 2.89 µM
- GI50 [22]: 0.16 µM
- CC50 [22]: > 100 µM
- GI50 [23]: 0.36 µM
- CC50 [23]: > 100 µM
- GI50 [24]: 0.09 µM
- TGI [24]: > 100 µM
- GI50 ([25]; Homo sapiens): 0.33 µM
- GI50 [25]: 0.17 µM

Structure (SMILES): O=C(O)CCCCCN1C(=O)/C(=C/C=C/c2ccc([N+](=O)[O-])o2)SC1=S [14b, 6-((Z)-5-((E)-3-(5-nitrofuran-2-yl)allylidene)-4-oxo-2-thioxothiazolidin-3-yl)hexanoic acid]
- GI50 ([1]; Homo sapiens, 48 h): 2.21 µM
- CC50 ([1]; Homo sapiens, 48 h): 90.2 µM
- GI50 [1]: 1.96 µM
- TGI [1]: 7.06 µM and 7.95 µM
- GI50 [2]: 1.71 µM
- GI50 [3]: 1.11 µM
- CC50 [3]: 15.6 µM
- MG_MID TGI [4]: 2.62 µM
- CC50 [5, 33]: 5.01 µM
- CC50 ([5]; read-out: LC50, IGROV1, 48 h): 2.67 µM
- GI50 [6]: 0.2 µM
- GI50 [26]: 1.78 µM
- GI50 [27]: 0.52 µM
- CC50 [27]: 4.31 µM
- MG_MID TGI [7]: 11.35 µM
- GI50 [8]: 0.76 µM
- CC50 [8]: 4.4 µM
- GI50 ([28]; Homo sapiens): 1.42 µM
- GI50 [28]: 1.19 µM
- TGI [28]: 2.83 µM and 2.67 µM
- GI50 [10]: 1.31 µM
- CC50 [10]: 5.41 µM
- GI50 ([29]; COLO 205, 48 h): 0.97 µM
- TGI ([29]; COLO 205, 48 h): 3.08 µM and 2.35 µM
- CC50 ([29]; human, 48 h): 5.61 µM
- GI50 ([30]; SK-MEL-28, 48 h): 1.19 µM
- TGI ([30]; SK-MEL-28, 48 h): 3.11 µM and 2.71 µM
- CC50 ([30]; human, 48 h): 6.21 µM
- GI50 [11]: 1.52 µM
- CC50 [11]: 5.44 µM
- GI50 [12]: 0.3 µM
- CC50 ([12]; human, 48 h): 9.71 µM
- CC50 [31]: 5.07 µM
- GI50 [13]: 0.83 µM
- GI50 ([14]; Homo sapiens, UACC-62, 48 h): 0.37 µM
- CC50 [14, 34]: 4.08 µM
- growth GP [14]: -96.88%
- GI50 ([14]; UACC-62, 48 h): 0.25 µM
- CC50 ([14]; read-out: LC50, UACC-62, 48 h): 2.82 µM
- GI50 ([15]; Homo sapiens): 0.39 µM
- GI50 [15]: 0.44 µM
- TGI [15]: 1.82 µM and 1.99 µM
- GI50 [16]: 1.98 µM
- CC50 [16]: 10.4 µM
- GI50 [17]: 2.98 µM
- GI50 [18]: 10.2 µM
- TGI [18]: 20.8 µM and 22.8 µM
- GI50 ([19]; 48 h): 2.38 µM
- GI50 ([19]; Homo sapiens, A549, 48 h): 1.62 µM
- GI50 [20]: 1.53 µM
- CC50 [20]: 6.29 µM
- GI50 ([21]; SF-268, 48 h): 1.32 µM
- TGI ([21]; SF-268, 48 h): 2.71 µM and 3.63 µM
- CC50 ([21]; human, 48 h): 9.99 µM
- GI50 [22]: 0.2 µM
- CC50 [22]: > 100 µM
- GI50 [23]: 0.33 µM
- GI50 [24]: 0.28 µM
- CC50 ([25]; Homo sapiens): 5.27 µM

Structure (SMILES): O=C(O)CCN1C(=O)/C(=C/C=C/c2ccc([N+](=O)[O-])o2)SC1=S [12b, 3-((Z)-5-((E)-3-(5-Nitrofuran-2-yl)allylidene)-4-oxo-2-thioxothiazolidin-3-yl)propanoic acid]
- GI50 ([1]; Homo sapiens, 48 h): 2.83 µM
- CC50 ([1]; Homo sapiens, 48 h): 79.7 µM
- TGI [1]: 12.5 µM
- GI50 [2]: 4.7 µM
- CC50 [2]: 43.7 µM
- GI50 [3]: 2.05 µM
- CC50 [3]: 17.7 µM
- MG_MID TGI [4]: 4.09 µM
- GI50 ([5]; Homo sapiens, IGROV-1, 48 h, IGROV1, 48 h): 1.43 µM
- CC50 [5, 33]: 5.7 µM
- TGI ([5]; IGROV1, 48 h): 2.86 µM
- TGI [6]: 3.57 µM
- GI50 [27]: 1.05 µM
- CC50 [27]: 4.84 µM
- MG_MID TGI [7]: 2.52 µM
- GI50 [8]: 1.14 µM
- CC50 [8]: 5.56 µM
- TGI [28]: 3.37 µM
- GI50 [9]: 2.48 µM
- GI50 [10]: 1.79 µM
- CC50 [10]: 8.07 µM
- TGI ([29]; COLO 205, 48 h): 12.4 µM
- TGI ([30]; SK-MEL-28, 48 h): 3.05 µM
- GI50 [11]: 2.61 µM
- CC50 [11]: 33.3 µM
- TGI [12]: 7.11 µM
- GI50 [31]: 1.35 µM
- CC50 [31]: 6.13 µM
- GI50 [13]: 1.42 µM
- GI50 ([14]; Homo sapiens, UACC-62, 48 h): 0.65 µM
- CC50 [14, 34]: 4.16 µM
- growth GP [14]: -97.43%
- TGI ([14]; UACC-62, 48 h): 2.00 µM
- GI50 ([15]; Homo sapiens): 0.46 µM
- TGI [15]: 2.10 µM
- GI50 [16]: 3.05 µM
- CC50 [16]: 11.9 µM
- TGI [17]: 16.1 µM
- growth GP ([18]; A498, 10 μM, 48 h): -96.94%
- TGI [18]: 27.4 µM
- TGI ([19]; 48 h): 12.4 µM
- GI50 ([19]; Homo sapiens, A549, 48 h): 3.21 µM
- GI50 [20]: 1.69 µM
- CC50 [20]: 6.7 µM
- TGI ([21]; SF-268, 48 h): 3.18 µM
- GI50 [22]: 0.34 µM
- CC50 [22]: > 100 µM
- GI50 [23]: 1.23 µM
- CC50 [23]: > 100 µM
- TGI [24]: 2.73 µM
- GI50 ([25]; Homo sapiens): 0.66 µM
- CC50 ([25]; Homo sapiens): 5.71 µM
- TGI [25]: 2.14 µM
- GI50 ([32]; Homo sapiens): 1.1 µM
- CC50 ([32]; Homo sapiens, read-out: LC50, NCI-H522, 48 h): 5.52 µM
- TGI [32]: 2.46 µM
